As a reminder, the Kd is the equilibrium constant for the complex coming apart.

Active and inactive are the calls of the source. How the calls were made is not given here.

The target of this experiment is Serine/threonine-protein kinase mTOR (Homo sapiens) (UniProt P42345). The experiment is described as follows: mTOR FRB domain ligand binding – biophysical, NMR (AID 1648). Particulars: NMR binding to FRB domain, chemical shift.
Serine/threonine-protein kinase mTOR (Homo sapiens), sequence (P42345 2015-2114): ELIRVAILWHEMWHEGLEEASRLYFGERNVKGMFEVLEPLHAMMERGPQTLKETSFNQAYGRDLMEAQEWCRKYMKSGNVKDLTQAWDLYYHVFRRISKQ
Consider `CSc1nc(-c2ccccc2)ccc1C(N)=O`, for which the Kd is > 4 mM (inactive).

For the molecule `CNc1nnc(Cc2csc(N)n2)s1`, the Kd was > 4 mM (inactive). For `Cc1[nH]c2ccccc2c1C=Nn1cncn1` the value was > 4 mM (inactive); for `O=C1C2CC=CCC2C(=O)N1c1ccccc1` (centres undefined), > 4 mM (inactive); for `CC(=O)O[C@@H]1CC2C(C)(C)C(=O)C=C[C@]2(C)C2CC[C@]3(C)C(=CC(=O)O[C@H]3c3ccoc3)[C@@]21C` (some centres undefined), > 4 mM (inactive). The figure for `COc1c(O)cccc1O` is > 4 mM (inactive); for `CCSc1nc2ccccc2n1CC(N)=O` it is > 4 mM (inactive); for `NC(=O)CSCc1c(Cl)cccc1Cl` it is > 4 mM (inactive). Consider `Cc1cccc(-n2c(N)cc(=O)[nH]c2=S)c1C`, for which the Kd is > 4 mM (inactive). The figure for `CN1CCN(C2CCN(Cc3ccccc3)CC2)CC1` is > 4 mM (inactive). Turning to `O=C(Cc1cccs1)N1CCOCC1`, the Kd is > 4 mM (inactive).

`COc1cc(/C=C/C(=O)O)cc(OC)c1OC`: the Kd is > 4 mM (inactive).

For `CC(C)=CCCC1(C)C=Cc2c(O)c3c(c(CC=C(C)C)c2O1)OC12C(=CC4CC1C(C)(C)OC2(C/C=C(/C)C(=O)O)C4=O)C3=O` (centres undefined), the Kd is > 4 mM (inactive). With `Cn1ncc(C(=O)O)c1-c1ccccc1`, the Kd is > 4 mM (inactive). With `O=c1c2ccccc2ncn1C1CCCCC1`, the Kd is > 4 mM (inactive). As to `N#CCCn1c(=O)oc2ccccc21`, the Kd is > 4 mM (inactive).

For the molecule `CCc1cccc(C)c1NC(=O)c1cc(C)oc1C`, the Kd is > 4 mM (inactive).

For `Cc1cc(C)n(CCCC(=O)O)n1`, the Kd was > 4 mM (inactive).

As for `Cn1[nH]c(C(F)(F)F)cc1=O`, the Kd is > 4 mM (inactive). For `NC(=O)CSc1ncnc2ccccc12` the value was > 4 mM (inactive); for `O=C(Nc1ccon1)c1cc2c(s1)CCCC2`, > 4 mM (inactive); for `O=c1[nH]cnc2nn(-c3ccccc3)nc12`, > 4 mM (inactive). For `O=C1CN2C(=N1)N(Cc1ccccc1)c1ccccc12`, the Kd was > 4 mM (inactive).

With `CC(O)C(=O)N/N=C/c1cccs1` (centres undefined), the Kd was > 4 mM (inactive). In the case of `CCOCC(=O)NCc1n[nH]c(=O)c2ccccc12`, the Kd was > 4 mM (inactive).

As for `CCOC(=O)C1=C(O)CCN(C)C1`, the Kd is > 4 mM (inactive). For `NCc1cccc2c1OCCCO2` the value was > 4 mM (inactive); for `C[C@@H]1O[C@@H](O[C@H]2[C@@H](Oc3cc(O)c4c(c3)O[C@H](c3ccc(O)cc3)CC4=O)O[C@H](CO)[C@@H](O)[C@@H]2O)[C@H](O)[C@H](O)[C@H]1O`, > 4 mM (inactive).

Turning to `COc1cc2c(cc1OC)[C@@H]1C(=O)c3ccc4c(c3O[C@@H]1CO2)C=CC(C)(C)O4`, the Kd is > 4 mM (inactive). For `CC(=O)Nc1ccc(C(=O)N2CCOCC2)cc1Cl` the value was > 4 mM (inactive); for `Cc1nn(-c2ccccc2)nc1CN`, > 4 mM (inactive). `Nc1ccccc1C(=O)N1CCOCC1`: the Kd is > 4 mM (inactive). For `COCc1cc(=O)oc2cc(O)c(Cl)cc12` the value was > 4 mM (inactive). For `CC(C)n1c(Nn2cnnc2)nc2ccccc21`, the Kd is > 4 mM (inactive).

`Cc1nc(N)sc1C(=O)N/N=C/c1ccncc1`: the Kd was > 4 mM (inactive). For `Cc1ccc2[nH]c3nc(=S)[nH]nc3c2c1` the value was > 4 mM (inactive); for `c1ccc(Cc2nnc3sc(-c4ccccn4)nn23)cc1`, > 4 mM (inactive). Regarding `Cc1c(CO)cnn1-c1ccccc1`, the Kd was > 4 mM (inactive). Consider `Cn1c(=O)cc(N2CCCCC2)[nH]c1=O`, for which the Kd is > 4 mM (inactive). For `COc1cc(OC)c2c(=O)c(-c3ccccc3)coc2c1`, the Kd is > 4 mM (inactive). `O=C1CC(=O)N(Cc2ccco2)C(=S)N1`: the Kd is > 4 mM (inactive). For the molecule `Cc1ccccc1OCC(=O)O`, the Kd is > 4 mM (inactive).

Turning to `CC[C@H]1CN2CCc3cc(OC)c(OC)cc3C2C[C@@H]1CC1NCCc2cc(OC)c(OC)cc21` (some centres undefined), the Kd is > 4 mM (inactive). For the molecule `Cn1nc(C(=O)Nc2cccnc2)cc1Cl`, the Kd was > 4 mM (inactive). The figure for `N#CCN1C(=O)c2ccccc2S1(=O)=O` is > 4 mM (inactive); for `N#Cc1sc2nc3c(c(-c4cccnc4)c2c1N)CCC3` it is > 4 mM (inactive). Regarding `OCCOc1ccc(C2=NCCO2)cc1`, the Kd was > 4 mM (inactive). For `CC(C)Oc1ccc(NC(N)=O)cc1`, the Kd was > 4 mM (inactive).

As to `COc1ccc2c(c1OC)C(=O)N(c1ncn[nH]1)C2`, the Kd was > 4 mM (inactive). With `O=C(O)c1ccnc2ccccc12`, the Kd is > 4 mM (inactive). Consider `Cc1c(-c2ccc(F)cc2)[n+](=O)c2c(n1[O-])CCC2`, for which the Kd was > 4 mM (inactive).

Consider `O=C(Cc1c(F)cccc1Cl)Nc1cccnc1`, for which the Kd was > 4 mM (inactive). For the molecule `Cc1cc(NC(=O)CS(=O)(=O)c2ccccc2)no1`, the Kd was > 4 mM (inactive). For `Cn1cnc2cc(NC(=O)c3ccco3)ccc21`, the Kd was > 4 mM (inactive). Consider `Cc1cc2cc(N)ccc2[nH]1`, for which the Kd is > 4 mM (inactive). As to `Cc1nn2c(=O)nc3sc4c(c3c2[nH]c1=O)CCCC4`, the Kd is > 4 mM (inactive). `O=C(NCc1ccccn1)c1ccccc1Cl`: the Kd is > 4 mM (inactive). For `CN1CCC(NC(=O)c2cnccn2)CC1`, the Kd was > 4 mM (inactive). For `NC12CC3CC(C1)CC(C(=O)O)(C3)C2`, the Kd was > 4 mM (inactive). For `COC1CC(O[C@H]2CC[C@]3(C=O)C4CC[C@]5(C)C(C6=CC(=O)OC6)CC[C@]5(O)C4CC[C@]3(O)C2)OC(C)C1O` (some centres undefined), the Kd is > 4 mM (inactive). For `OC1CSc2ncnn2C1` (centres undefined) the value was > 4 mM (inactive). The figure for `O=C(O)Cn1nnnc1-c1ccc(F)cc1` is > 4 mM (inactive); for `Cc1cc(S(=O)(=O)N2CCOCC2)ccc1F` it is > 4 mM (inactive). The figure for `c1ccc2[nH]c(-c3cscn3)nc2c1` is > 4 mM (inactive).

As for `NC1=NC(=O)C(CC(=O)Nc2ccccc2F)S1` (centres undefined), the Kd was > 4 mM (inactive). For `Cc1cc(C(=O)NC2=NCCS2)cs1` the value was > 4 mM (inactive). For `O=C1CSC(=S)N1Cc1cccnc1` the value was > 4 mM (inactive); for `Cc1[nH]ccc2c1[nH]c1cc(=O)ccc12`, > 4 mM (inactive). As for `S=C1NC(=S)NC(c2ccc3c(c2)OCO3)N1`, the Kd was > 4 mM (inactive). For `CC1(C)C2CC(=O)[C@]3(C)C(CC[C@@]4(C)[C@H](c5ccoc5)OC(=O)[C@H]5O[C@]543)[C@@]2(C)C(=O)C[C@H]1O` (some centres undefined) the value was > 4 mM (inactive). For the molecule `CCNC(=S)N1CCC(C(N)=O)CC1`, the Kd is > 4 mM (inactive). The figure for `O=C1C2CC=CCC2C(=O)N1c1cccc(O)c1` (centres undefined) is > 4 mM (inactive); for `Cc1ccc(F)cc1NC(=O)c1ccc2c(c1)OCO2` it is > 4 mM (inactive). For `Cc1cc(=O)oc2cc(O)c(O)cc12` the value was > 4 mM (inactive).
